In PubChem BioAssay AID1611 (NINDS Approved Drug Screening Program, 2009):

test system: human cells, HSE-luciferase heat shock reporter; experiment: inducers of human heat shock response, cell-based, HSE luciferase (AID 1611); conditions: measured here: HSE reporter induction potency

EC50 [µM] | Structure (SMILES)
4.6 | CC[C@H]1OC(=O)[C@H](C)[C@@H](O[C@H]2C[C@@](C)(OC)[C@@H](O)[C@H](C)O2)[C@H](C)[C@@H](O[C@@H]2O[C@H](C)C[C@H](N(C)C)[C@H]2O)[C@](C)(O)C[C@@H](C)CN(C)[C@H](C)[C@@H](O)[C@]1(C)O
4.3 | CC(COc1ccccc1)NC(C)[C@H](O)c1ccc(O)cc1 (stereo partly specified)
5 | Cc1ccc(C(=O)c2ccc(CC(=O)O)n2C)cc1
4.6 | O=C1c2ccccc2C(=O)C1c1ccccc1
4.7 | CC(=O)O[C@]1(C(C)=O)CCC2C3C=C(Cl)C4=CC(=O)[C@@H]5C[C@@H]5[C@]4(C)C3CC[C@@]21C (stereo partly specified)

Structure (SMILES) | EC50 [µM]
C[C@H]1O[C@@H](O[C@H]2[C@@H](O)C[C@H](O[C@H]3[C@@H](O)C[C@H](O[C@H]4CC[C@]5(C)C6CC[C@]7(C)[C@@H](C8=CC(=O)OC8)CC[C@]7(O)C6CC[C@@H]5C4)O[C@@H]3C)O[C@@H]2C)C[C@H](O)[C@@H]1O (stereo partly specified) | 4
